Reference: BindingDB's records for doi:10.1016/j.bmcl.2009.04.040 (The University of Texas Southwestern Medical Center At …, 2009)

What follows are compounds tested against Proto-oncogene Wnt-3 (Homo sapiens, UniProt P56703) (assay: Inhibition of Wnt3 expressed in mouse L-cells assessed as inhibition of Wnt/catanin signaling pathway by luciferase reporter gene assay).
Chain of Proto-oncogene Wnt-3 (P56703 whole entry): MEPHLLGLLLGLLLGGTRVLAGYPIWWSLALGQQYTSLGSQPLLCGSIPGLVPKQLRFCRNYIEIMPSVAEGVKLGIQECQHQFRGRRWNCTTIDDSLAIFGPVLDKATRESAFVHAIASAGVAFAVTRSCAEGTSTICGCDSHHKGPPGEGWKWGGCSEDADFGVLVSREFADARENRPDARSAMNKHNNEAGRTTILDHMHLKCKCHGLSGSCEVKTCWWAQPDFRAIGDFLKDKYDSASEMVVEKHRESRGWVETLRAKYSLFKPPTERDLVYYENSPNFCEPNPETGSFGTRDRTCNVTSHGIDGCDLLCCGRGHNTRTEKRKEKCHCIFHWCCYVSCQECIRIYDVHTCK
`Cc1ccc2cccnc2c1NC(=O)c1ccc(-n2c(O)c3c(c2O)[C@H]2C=C[C@@H]3C2)cc1` [4-((1R,2S,6R,7S)-3,5-Dioxo-4-aza-tricyclo[5.2.1.0*2,6*]dec-8-en-4-yl)-N-(7-methyl-quinolin-8-yl)-benzamide] was tested, and the EC50 was 0.8 µM. Work on `O=C(Nc1cccc2cccnc12)c1ccc(-n2c(O)c3c(c2O)[C@H]2C=C[C@@H]3C2)cc1Cl` [2-Chloro-4-((1R,2S,6R,7S)-3,5-dioxo-4-aza-tricyclo[5.2.1.0*2,6*]dec-8-en-4-yl)-N-quinolin-8-yl-benzamide] yielded an EC50 of 1 µM. `O=C(Nc1ccc(F)cc1F)c1ccc(-n2c(O)c3c(c2O)[C@H]2C=C[C@@H]3C2)cc1` [N-(2,4-Difluoro-phenyl)-4-((1R,2S,6R,7S)-dioxo-4-aza-tricyclo[5.2.1.0*2,6*]dec-8-en-4-yl)-benzamide] was tested, and the EC50 was 9 µM. For `O=C(NC1CCCc2cccnc21)c1ccc(-n2c(O)c3c(c2O)[C@H]2C=C[C@@H]3C2)cc1` (stereo partly drawn) [4-((1R,2S,6R,7S)-3,5-Dioxo-4-aza-tricyclo[5.2.1.0*2,6*]dec-8-en-4-yl)-N-(5,6,7,8-tetrahydro-quinolin-8-yl)-benzamide], the EC50 was 10 µM. For `O=C(Nc1ccc(Cl)c(Cl)c1)c1ccc(-n2c(O)c3c(c2O)[C@H]2C=C[C@@H]3C2)cc1` [N-(3,4-Dichloro-phenyl)-4-((1R,2S,6R,7S)-dioxo-4-aza-tricyclo[5.2.1.0*2,6*]dec-8-en-4-yl)-benzamide], the EC50 was 5 µM. With `O=C(Nc1ccc(-n2c(O)c3c(c2O)[C@H]2C=C[C@@H]3C2)cc1)Nc1cccc2cccnc12` [1-[4-((1R,2S,6R,7S)-3,5-Dioxo-4-aza-tricyclo[5.2.1.0*2,6*]dec-8-en-4-yl)-phenyl]-3-quinolin-8-yl-urea] the EC50 was over 25 µM. Compound `Cc1ccc2cccnc2c1NC(=O)[C@H]1CC[C@H](N2C(=O)[C@@H]3[C@H](C2=O)[C@@H]2C=C[C@H]3C2)CC1` [4-((1R,2S,6R,7S)-3,5-Dioxo-4-aza-tricyclo[5.2.1.0*2,6*]dec-8-en-4-yl)-cyclohexanecarboxylic acid(7-methyl-quinolin-8-yl)-amide] has an EC50 of 1 µM. `COc1ccccc1NC(=O)c1ccc(-n2c(O)c3c(c2O)[C@H]2C=C[C@@H]3C2)cc1` [4-((1R,2S,6R,7S)-3,5-Dioxo-4-aza-tricyclo[5.2.1.0*2,6*]dec-8-en-4-yl)-N-(2-methoxy-phenyl)-benzamide] showed an EC50 of 1 µM. `O=C1[C@@H]2[C@H](C(=O)N1C[C@H]1CC[C@H](C(=O)Nc3cccc4cccnc34)CC1)[C@@H]1C=C[C@H]2C1` [4-((1R,2S,6R,7S)-3,5-Dioxo-4-aza-tricyclo[5.2.1.0*2,6*]dec-8-en-4-ylmethyl)-cyclohexanecarboxylic acid quinolin-8-ylamide] showed an EC50 of over 25 µM. `O=C(NCc1ccncc1)c1ccc(-n2c(O)c3c(c2O)[C@H]2C=C[C@@H]3C2)cc1` [4-((1R,2S,6R,7S)-3,5-Dioxo-4-aza-tricyclo[5.2.1.0*2,6*]dec-8-en-4-yl)-N-pyridin-4-ylmethyl-benzamide] gave an EC50 of 10 µM. Compound `O=C1[C@@H]2[C@H](C(=O)N1[C@H]1CC[C@H](C(=O)Nc3cccc4cccnc34)CC1)[C@@H]1C=C[C@H]2C1` [4-((1R,2S,6R,7S)-3,5-Dioxo-4-aza-tricyclo[5.2.1.0*2,6*]dec-8-en-4-yl)-cyclohexanecarboxylic acid quinolin-8-ylamide] has an EC50 of 0.4 µM. In the case of `CN(C(=O)c1ccc(-n2c(O)c3c(c2O)[C@H]2C=C[C@@H]3C2)cc1)c1cccc2cccnc12` [4-((1R,2S,6R,7S)-3,5-Dioxo-4-aza-tricyclo[5.2.1.0*2,6*]dec-8-en-4-yl)-N-methyl-N-quinolin-8-yl-benzamide], the EC50 is reported as over 25 µM. In the case of `O=C(Nc1ccccc1C(F)(F)F)c1ccc(-n2c(O)c3c(c2O)[C@H]2C=C[C@@H]3C2)cc1` [4-((1R,2S,6R,7S)-3,5-Dioxo-4-aza-tricyclo[5.2.1.0*2,6*]dec-8-en-4-yl)-N-(2-trifluoromethyl-phenyl)-benzamide], the EC50 is reported as over 25 µM. With `O=C(NC1CCCCC1)c1ccc(-n2c(O)c3c(c2O)[C@H]2C=C[C@@H]3C2)cc1` [N-Cyclohexyl-4-((1R,2S,6R,7S)-3,5-dioxo-4-aza-tricyclo[5.2.1.0*2,6*]dec-8-en-4-yl)-benzamide] the EC50 was over 25 µM. In the case of `O=C(NCc1ccccn1)c1ccc(-n2c(O)c3c(c2O)[C@H]2C=C[C@@H]3C2)cc1` [4-((1R,2S,6R,7S)-3,5-Dioxo-4-aza-tricyclo[5.2.1.0*2,6*]dec-8-en-4-yl)-N-pyridin-2-ylmethyl-benzamide], the EC50 is reported as over 25 µM. `O=C(Nc1ccccc1Br)c1ccc(-n2c(O)c3c(c2O)[C@H]2C=C[C@@H]3C2)cc1` [N-(2-Bromo-phenyl)-4-((1R,2S,6R,7S)-3,5-dioxo-4-aza-tricyclo[5.2.1.0*2,6*]dec-8-en-4-yl)-benzamide] was tested, and the EC50 was over 25 µM. Work on `O=C(Nc1ccc(Br)c(Br)c1)c1ccc(-n2c(O)c3c(c2O)[C@H]2C=C[C@@H]3C2)cc1` [N-(3,4-Dibromo-phenyl)-4-((1R,2S,6R,7S)-dioxo-4-aza-tricyclo[5.2.1.0*2,6*]dec-8-en-4-yl)-benzamide] yielded an EC50 of 10 µM. `O=C(Nc1ccc(F)cc1)c1ccc(-n2c(O)c3c(c2O)[C@H]2C=C[C@@H]3C2)cc1` [4-((1R,2S,6R,7S)-3,5-Dioxo-4-aza-tricyclo[5.2.1.0*2,6*]dec-8-en-4-yl)-N-(4-fluoro-phenyl)-benzamide] was tested, and the EC50 was 4 µM. `O=C(Nc1ccccc1Cl)c1ccc(-n2c(O)c3c(c2O)[C@H]2C=C[C@@H]3C2)cc1` [N-(2-Chloro-phenyl)-4-((1R,2S,6R,7S)-3,5-dioxo-4-aza-tricyclo[5.2.1.0*2,6*]dec-8-en-4-yl)-benzamide] was tested, and the EC50 was over 25 µM. `O=C(Nc1ccc(Cl)cc1Cl)c1ccc(-n2c(O)c3c(c2O)[C@H]2C=C[C@@H]3C2)cc1` [N-(2,4-Dichloro-phenyl)-4-((1R,2S,6R,7S)-dioxo-4-aza-tricyclo[5.2.1.0*2,6*]dec-8-en-4-yl)-benzamide] was tested, and the EC50 was 10 µM. For `Cc1cc(C(=O)Nc2cccc3cccnc23)ccc1-n1c(O)c2c(c1O)[C@H]1C=C[C@@H]2C1` [4-((1R,2S,6R,7S)-3,5-Dioxo-4-aza-tricyclo[5.2.1.0*2,6*]dec-8-en-4-yl)-3-methyl-N-quinolin-8-yl-benzamide], the EC50 was over 25 µM. `O=C(N[C@H]1CCCC[C@@H]1O)c1ccc(-n2c(O)c3c(c2O)[C@H]2C=C[C@@H]3C2)cc1` [trans-4-((1R,2S,6R,7S)-3,5-Dioxo-4-aza-tricyclo[5.2.1.0*2,6*]dec-8-en-4-yl)-N-((2-hydroxy-cyclohexyl)-benzamide] was tested, and the EC50 was over 25 µM. Compound `O=C(Nc1cccc(F)c1)c1ccc(-n2c(O)c3c(c2O)[C@H]2C=C[C@@H]3C2)cc1` [4-((1R,2S,6R,7S)-3,5-Dioxo-4-aza-tricyclo[5.2.1.0*2,6*]dec-8-en-4-yl)-N-(3-fluoro-phenyl)-benzamide] has an EC50 of over 25 µM. Compound `O=C(Nc1cccc(Cl)c1)c1ccc(-n2c(O)c3c(c2O)[C@H]2C=C[C@@H]3C2)cc1` [N-(3-Chloro-phenyl)-4-((1R,2S,6R,7S)-3,5-dioxo-4-aza-tricyclo[5.2.1.0*2,6*]dec-8-en-4-yl)-benzamide] has an EC50 of over 25 µM. In the case of `O=C(Nc1ccccc1)c1ccc(-n2c(O)c3c(c2O)[C@H]2C=C[C@H]3C2)cc1` [4-((1R,2S,6R,7R)-3,5-Dioxo-4-aza-tricyclo[5.2.1.0*2,6*]dec-8-en-4-yl)-N-phenyl-benzamide], the EC50 is reported as over 25 µM. Work on `O=C(Nc1ccc(Br)cc1)c1ccc(-n2c(O)c3c(c2O)[C@H]2C=C[C@@H]3C2)cc1` [N-(4-Bromo-phenyl)-4-((1R,2S,6R,7S)-3,5-dioxo-4-aza-tricyclo[5.2.1.0*2,6*]dec-8-en-4-yl)-benzamide] yielded an EC50 of 1 µM. For `Cc1cc(-n2c(O)c3c(c2O)[C@H]2C=C[C@@H]3C2)ccc1C(=O)Nc1cccc2cccnc12` [4-((1R,2S,6R,7S)-3,5-Dioxo-4-aza-tricyclo[5.2.1.0*2,6*]dec-8-en-4-yl)-2-methyl-N-quinolin-8-yl-benzamide], the EC50 was 2 µM. `O=C(Nc1ccccc1F)c1ccc(-n2c(O)c3c(c2O)[C@H]2C=C[C@@H]3C2)cc1` [4-((1R,2S,6R,7S)-3,5-Dioxo-4-aza-tricyclo[5.2.1.0*2,6*]dec-8-en-4-yl)-N-(2-fluoro-phenyl)-benzamide] was tested, and the EC50 was over 25 µM. Work on `O=C(Nc1ccc(Cl)cc1)c1ccc(-n2c(O)c3c(c2O)[C@H]2C=C[C@@H]3C2)cc1` [N-(4-Chloro-phenyl)-4-((1R,2S,6R,7S)-3,5-dioxo-4-aza-tricyclo[5.2.1.0*2,6*]dec-8-en-4-yl)-benzamide] yielded an EC50 of 3 µM. `O=C(NCc1ccccc1)c1ccc(-n2c(O)c3c(c2O)[C@H]2C=C[C@@H]3C2)cc1` [N-Benzyl-4-((1R,2S,6R,7S)-3,5-dioxo-4-aza-tricyclo[5.2.1.0*2,6*]dec-8-en-4-yl)-benzamide] was tested, and the EC50 was 20 µM. `Cc1ccc2cccnc2c1NC(=O)[C@H]1CC[C@H](CN2C(=O)[C@@H]3[C@H](C2=O)[C@@H]2C=C[C@H]3C2)CC1` [4-((1R,2S,6R,7S)-3,5-Dioxo-4-aza-tricyclo[5.2.1.0*2,6*]dec-8-en-4-ylmethyl)-cyclohexanecarboxylic acid(7-methyl-quinolin-8-yl)-amide] gave an EC50 of 10 µM. `O=C(Nc1ccc(F)c(F)c1)c1ccc(-n2c(O)c3c(c2O)[C@H]2C=C[C@@H]3C2)cc1` [N-(3,4-Difluoro-phenyl)-4-((1R,2S,6R,7S)-dioxo-4-aza-tricyclo[5.2.1.0*2,6*]dec-8-en-4-yl)-benzamide] gave an EC50 of 3 µM. For `O=C(Nc1ccc(C(F)(F)F)cc1)c1ccc(-n2c(O)c3c(c2O)[C@H]2C=C[C@@H]3C2)cc1` [4-((1R,2S,6R,7S)-3,5-Dioxo-4-aza-tricyclo[5.2.1.0*2,6*]dec-8-en-4-yl)-N-(4-trifluoromethyl-phenyl)-benzamide], the EC50 was over 25 µM. Compound `CO[C@@H]1CCCC[C@H]1NC(=O)c1ccc(-n2c(O)c3c(c2O)[C@H]2C=C[C@@H]3C2)cc1` [trans-4-((1R,2S,6R,7S)-3,5-Dioxo-4-aza-tricyclo[5.2.1.0*2,6*]dec-8-en-4-yl)-N-(2-methoxy-cyclohexyl)-benzamide] has an EC50 of 2 µM. `O=C(Nc1c(F)cccc1F)c1ccc(-n2c(O)c3c(c2O)[C@H]2C=C[C@@H]3C2)cc1` [N-(2,6-Difluoro-phenyl)-4-((1R,2S,6R,7S)-dioxo-4-aza-tricyclo[5.2.1.0*2,6*]dec-8-en-4-yl)-benzamide] showed an EC50 of over 25 µM. For `O=C(Nc1cc(F)ccc1F)c1ccc(-n2c(O)c3c(c2O)[C@H]2C=C[C@@H]3C2)cc1` [N-(2,5-Difluoro-phenyl)-4-((1R,2S,6R,7S)-dioxo-4-aza-tricyclo[5.2.1.0*2,6*]dec-8-en-4-yl)-benzamide], the EC50 was over 25 µM.
